Here are results for 5 compounds from ChEMBL document CHEMBL1124940, “N-[(arylmethoxy)phenyl] carboxylic acids, hydroxamic acids, tetrazoles, and sulfonyl carboxamides. Potent orally active leukotriene D4 antagonists of novel structure” (J Med Chem, 1990).

Data set [1] concerns Cavia porcellus. The data set is described as follows: Tested for the inhibition of ovalbumin- induced bronchoconstriction in Guinea pig, injected intraduodenally, dose of 3 mg/kg. It is filed as functional. The following applies: route intraduodenal.
Data set [2] concerns Cavia porcellus. The data set is described as follows: Tested for the inhibition of LTD4-induced bronchoconstriction in Guinea pig, injected intragastrically, dose of 10 mg/kg. The following applies: po, route intragastric. It is filed as functional.
Data set [3] has as its system Cavia porcellus. The data set is described as follows: Tested for the inhibition of LTD4-induced bronchoconstriction in Guinea pig, injected intraduodenally, dose is 3 mg/kg. It is filed as functional. The settings on record: route intraduodenal.
Data set [4] concerns Cavia porcellus. The experiment in a line: Tested for the inhibition of LTD4-induced bronchoconstriction in Guinea pig, injected intragastrically, dose of 3 mg/kg. Type of data set: functional. The following applies: po, route intragastric.
The subject of data set [5] is Cavia porcellus. The data set is described as follows: Tested for the inhibition of ovalbumin- induced bronchoconstriction in Guinea pig, injected intraduodenally, dose is 25 mg/kg. It is filed as functional. The following applies: route intraduodenal.
Data set [6] relates to Cavia porcellus. The experiment in a line: Tested for the inhibition of ovalbumin- induced bronchoconstriction in Guinea pig, injected intragastrically, dose of 10 mg/kg. Type of data set: functional. The settings on record: po, route intragastric.
In data set [7] the test system is Cavia porcellus. The experiment in a line: Tested for the inhibition of ovalbumin- induced bronchoconstriction in Guinea pig, injected intragastrically, dose of 25 mg/kg. The following applies: po, route intragastric. It is filed as functional.
Data set [8] relates to Cavia porcellus. The experiment in a line: Tested for the inhibition of LTD4-induced broncho constriction in Guinea pig, injected intraduodenally at a dose of 25 mg/kg. It is filed as functional. The following applies: route intraduodenal.
Data set [9] deals with Cavia porcellus. The experiment in a line: Tested for the inhibition of LTD4-induced bronchoconstriction in Guinea pig, compound injected intraduodenally, dose of 3 mg/kg. The following applies: route intraduodenal. It is filed as functional.
For data set [10], the system named is Cavia porcellus. The experiment in a line: Inhibition of ovalbumin-induced broncho constriction in Guinea pig after intraduodenal administration of a dose of 25 mg/kg. It is filed as functional.
In data set [11] the test system is Cavia porcellus. The data set is described as follows: Tested for the inhibition of LTD4-induced bronchoconstriction in Guinea pig, compound injected intragastrically at dose of 3 mg/kg. The following applies: po, route intragastric. It is filed as functional.
The test system of data set [12] is Cavia porcellus. The experiment in a line: In vitro inhibition of LTD4-induced bronchoconstriction into isolated guinea pig trachea by injecting intragastrically. It is filed as functional. The settings on record: po.
Data set [13] relates to Cavia porcellus. The data set is described as follows: Inhibition of LTD4-induced broncho constriction in Guinea pig after intragastrical administration of a dose of 25 mg/kg. Type of data set: functional. The settings on record: po, route intragastric.
Data set [14] concerns Rattus norvegicus. The data set is described as follows: Antiinflammatory effect was studied in a rat carrageenan paw edema (CE) assay at 50 mg/kg. It is filed as functional. For orientation: The carrageenan paw model is a standard test of acute inflammation.
The subject of data set [15] is Cavia porcellus. The experiment in a line: Tested for the inhibition of ovalbumin induced bronchoconstriction in Guinea pig, compound injected intragastrically at dose of 10 mg/kg. Type of data set: functional. The following applies: po, route intragastric.
The species named for data set [16] is Cavia porcellus. The data set is described as follows: Dose of antagonist that produces 50% inhibition of ovalbumin-induced bronchoconstriction. It is filed as functional.
In data set [17] the test system is Cavia porcellus. The experiment in a line: Tested for the inhibition of ovalbumin- induced bronchoconstriction in Guinea pig, compound injected intragastrically at dose of 25 mg/kg. It is filed as functional. The settings on record: po, route intragastric.
Data set [18] concerns the target T1, Cyclooxygenase (Rattus norvegicus, UniProt P35355+Q63921).
T1 sequence (P35355 whole entry): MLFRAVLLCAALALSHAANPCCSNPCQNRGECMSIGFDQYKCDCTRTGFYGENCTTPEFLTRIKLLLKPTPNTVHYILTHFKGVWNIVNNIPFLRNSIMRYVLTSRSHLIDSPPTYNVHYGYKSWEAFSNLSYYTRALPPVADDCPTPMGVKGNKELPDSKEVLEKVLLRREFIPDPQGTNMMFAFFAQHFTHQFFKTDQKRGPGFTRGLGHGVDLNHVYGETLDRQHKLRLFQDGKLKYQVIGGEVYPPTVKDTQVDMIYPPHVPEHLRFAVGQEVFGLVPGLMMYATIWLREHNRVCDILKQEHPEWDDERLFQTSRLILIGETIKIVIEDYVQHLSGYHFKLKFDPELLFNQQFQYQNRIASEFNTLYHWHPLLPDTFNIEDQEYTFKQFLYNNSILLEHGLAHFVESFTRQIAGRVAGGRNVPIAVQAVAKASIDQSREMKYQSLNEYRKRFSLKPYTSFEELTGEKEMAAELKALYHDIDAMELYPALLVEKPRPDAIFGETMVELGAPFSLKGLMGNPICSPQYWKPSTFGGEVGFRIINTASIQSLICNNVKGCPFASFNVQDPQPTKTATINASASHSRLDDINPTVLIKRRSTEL
T1 sequence (Q63921 whole entry): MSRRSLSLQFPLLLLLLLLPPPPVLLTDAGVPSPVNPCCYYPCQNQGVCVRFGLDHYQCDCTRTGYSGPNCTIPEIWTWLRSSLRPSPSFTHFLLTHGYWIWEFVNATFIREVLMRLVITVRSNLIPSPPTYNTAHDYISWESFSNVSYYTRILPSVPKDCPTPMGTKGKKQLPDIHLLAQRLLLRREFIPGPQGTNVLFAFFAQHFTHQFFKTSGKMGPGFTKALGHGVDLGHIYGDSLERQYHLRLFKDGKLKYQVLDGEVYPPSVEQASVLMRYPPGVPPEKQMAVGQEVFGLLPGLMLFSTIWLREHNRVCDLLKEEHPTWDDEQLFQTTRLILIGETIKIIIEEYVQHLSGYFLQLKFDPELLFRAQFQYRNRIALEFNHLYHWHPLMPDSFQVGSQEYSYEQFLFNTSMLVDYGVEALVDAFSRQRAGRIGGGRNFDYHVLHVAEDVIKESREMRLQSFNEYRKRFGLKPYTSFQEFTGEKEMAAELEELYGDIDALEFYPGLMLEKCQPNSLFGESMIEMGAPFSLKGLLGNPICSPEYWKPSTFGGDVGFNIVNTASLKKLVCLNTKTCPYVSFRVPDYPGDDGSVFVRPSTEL
The experiment in a line: Concentration that produces 50% inhibition of A-23187-stimulated radiolabeled 5-HETE and TXB2 synthesis by Prostaglandin G/H synthase. It is filed as protein assay.

The test system of data set [19] is Cavia porcellus. The experiment in a line: Dissociation constant was determined in vitro after intraduodenal administration in isolated guinea pig trachea. Type of data set: ADME, organism-based. The settings on record: in vivo, other.
Data set [20] addresses T2, Polyunsaturated fatty acid 5-lipoxygenase (Rattus norvegicus, UniProt P12527).
T2 sequence (P12527 whole entry): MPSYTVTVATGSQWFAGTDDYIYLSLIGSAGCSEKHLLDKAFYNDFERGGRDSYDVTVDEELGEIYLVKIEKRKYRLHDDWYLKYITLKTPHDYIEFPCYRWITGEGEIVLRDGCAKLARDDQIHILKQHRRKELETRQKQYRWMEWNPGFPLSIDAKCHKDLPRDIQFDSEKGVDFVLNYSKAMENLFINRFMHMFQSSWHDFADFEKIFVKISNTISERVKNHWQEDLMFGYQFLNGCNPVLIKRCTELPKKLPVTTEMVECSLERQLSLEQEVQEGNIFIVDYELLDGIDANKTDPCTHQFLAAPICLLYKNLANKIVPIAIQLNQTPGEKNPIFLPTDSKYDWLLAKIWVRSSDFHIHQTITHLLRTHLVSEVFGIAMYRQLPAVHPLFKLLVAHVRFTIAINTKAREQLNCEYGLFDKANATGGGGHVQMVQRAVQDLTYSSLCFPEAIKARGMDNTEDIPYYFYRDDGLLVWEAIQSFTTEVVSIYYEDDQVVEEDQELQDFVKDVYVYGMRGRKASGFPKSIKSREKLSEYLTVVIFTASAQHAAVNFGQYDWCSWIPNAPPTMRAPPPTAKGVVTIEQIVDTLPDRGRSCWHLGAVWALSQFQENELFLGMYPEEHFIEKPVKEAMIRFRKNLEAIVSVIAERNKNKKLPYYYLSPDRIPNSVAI
The experiment in a line: Concentration that produces 50% inhibition of A-23187-stimulated radiolabeled 5-HETE and TXB2 synthesis by PMN 5-lipoxygenase.

The test system of data set [21] is Cavia porcellus. The data set is described as follows: Inhibition of LTD4-induced broncho constriction in Guinea pig after intraduodenal administration of a dose of 25 mg/kg. It is filed as functional.
In data set [22] the test system is Cavia porcellus. The experiment in a line: Tested for the inhibition of LTD4-induced bronchoconstriction in Guinea pig, compound injected intragastrically at dose of 3 mg/kg. Type of data set: functional. The following applies: po, route intragastric.
The subject of data set [23] is Cavia porcellus. The experiment in a line: Inhibition of ovalbumin-induced broncho constriction in Guinea pig after intraduodenal administration of a dose of 10 mg/kg. Type of data set: functional.
Data set [24] relates to Cavia porcellus. The data set is described as follows: Tested for the inhibition of LTD4-induced bronchoconstriction in Guinea pig, injected intraduodenally, dose is 10 mg/kg. It is filed as functional. The following applies: route intraduodenal.
The test system of data set [25] is Cavia porcellus. The data set is described as follows: Tested for the inhibition of LTD4-induced bronchoconstriction in Guinea pig, injected intragastrically, dose is 3 mg/kg. It is filed as functional. The settings on record: po, route intragastric.
Data set [26] relates to Rattus norvegicus. The data set is described as follows: Antiinflammatory effect was studied in a rat carrageenan paw edema (CE) assay at a dose of 50 mg/kg. Type of data set: functional.
Data set [27] deals with T2, Polyunsaturated fatty acid 5-lipoxygenase. The data set is described as follows: Concentration that produces 50% inhibition of A-23187-stimulated radiolabeled 5-HETE and TXB2 synthesis by PMN 5-lipoxygenase. It is filed as functional.
The test system of data set [28] is Cavia porcellus. The data set is described as follows: Inhibition of LTD4-induced broncho constriction in Guinea pig after intragastrical administration of a dose of 3 mg/kg. Type of data set: functional. The settings on record: po, route intragastric.
For data set [29], the system named is Cavia porcellus. The experiment in a line: Tested for the inhibition of ovalbumin- induced bronchoconstriction in Guinea pig, injected intragastrically, dose of 10 mg/kg. Type of data set: functional. The settings on record: po, route intragastric.
Data set [30] is filed under the species Cavia porcellus. The experiment in a line: Dose of antagonist that produces 50% inhibition of ovalbumin-induced bronchoconstriction. Type of data set: functional.
Data set [31] relates to Cavia porcellus. The data set is described as follows: In vitro inhibition of LTD4-induced bronchoconstriction into isolated guinea pig trachea by injecting intraduodenally. Type of data set: functional. The settings on record: intraduodenal.

Turning to `Cc1ccc(S(=O)(=O)NC(=O)Cc2cccc(OCc3nc4ccccc4s3)c2)cc1`, the results for the inhibition in vivo at 3 mg/kg in data set [1], in data set [3] and in data set [4] were 44%, 83% and 80%, respectively. Moreover, the inhibition in vivo (as a rule, the percentage by which the read-out fell short of the control) at 10 mg/kg in data set [2] was less than 55%; in [6] it was 42%. For the same compound, the inhibition in vivo at 25 mg/kg in [5] was 78%; in data set [7] it was less than 70%; in [8], less than 97%.

For `Cc1ccc(S(=O)(=O)NC(=O)c2cccc(OCc3ccc4ccccc4n3)c2)cc1`, the inhibition in vivo at 3 mg/kg in [9] turned out to be 83%; in data set [11], 86%. The values for the inhibition in vivo at 25 mg/kg in data set [10], in [13] and in data set [17] were less than 80%, 91% and less than 57%, respectively. For the same compound, the 50% effective dose (ED50) (in general, the midpoint of the dose-response relation) in data set [12] is 0.4 mg/kg; in data set [16], 2.02 mg/kg. This compound registered an inhibition in vivo at 50 mg/kg in data set [14] of less than 69%. The compound also showed an inhibition in vivo at 10 mg/kg in [15] of 4%. Further, the values for the IC50 in [18] and in [20] were 13.4 µM and 6.2 µM, respectively. Besides, the pKb (usually the negative decadic logarithm of the Kb, by convention in mol/L) in data set [19] turned out to be 7.78.

Regarding `O=C(Cc1cccc(OCc2ccc3ccccc3n2)c1)NOCc1ccccc1`, the inhibition in vivo at 25 mg/kg in data set [21] was less than 26%; in data set [13] it was less than 67%. This compound also displayed an inhibition in vivo at 3 mg/kg in [22] of 18%.

In the case of `Cc1ccc(S(=O)(=O)NC(=O)c2cccc(OCc3ncc4ccccc4n3)c2)cc1`, the inhibition in vivo at 10 mg/kg turned out to be 66% in data set [23] and 50% in [24]. This compound also gave an inhibition in vivo at 3 mg/kg in data set [25] of 60%. The results for the inhibition in vivo at 25 mg/kg in data set [13] and in [8] were 99% and 85%, respectively.

With `c1cc(Cc2nnn[nH]2)cc(OCc2ccc3ccccc3n2)c1`, in [26], the inhibition in vivo at 50 mg/kg is 30%. The 50% inhibitory concentration (IC50) (in general, the concentration needed to halve the response being measured) in [27] turned out to be 3.9 µM. In addition, the inhibition in vivo at 3 mg/kg in data set [28] was 50%; in data set [3], 53%. Besides, the inhibition in vivo at 10 mg/kg in [29] was determined as 49%. Also, the ED50 in data set [12] worked out at 3 mg/kg; in [30], 6.7 mg/kg; in data set [31], 3 mg/kg. In addition, the inhibition in vivo at 25 mg/kg in data set [13] is less than 99%; in [7], less than 31%; in data set [8] it was less than 94%.
